Patent US7524849B2, “5-arylpyrimidines as anticancer agents” (Wyeth Holdings Corporation, priority 2003, dated 2009)
Like-named read-outs stand apart in the source and are kept apart here. Marks after values point to notes of the source that are not given here.

Legend:
S1-M1 cells = experiment: MTS cytotoxicity test with S1-M1 cells (MXR); format: cell-based, human; details: for IC50: S1-M1 cells, mean of 2 experiments; for Ratio: IC50 on S1-M1 cells/IC50 on S1 cells
From the text: (§1) Human cancer cell lines, unless otherwise noted, are obtained from the American Type Culture Collection (Rockville, Md.). The following drug-sensitive parental cell lines, and their derived drug-resistant counterparts, are obtained from the originators as listed: (a) S1 (parental line from a subclone of human colon carcinoma line LS174T) and derived S1-M1-3.2 (herein called S1-M1) which expresses the MXR drug transporter protein, are provided by Dr. L. Greenberger, Wyeth Research (Rabindran, S. K., He, H., Singh, M., Brown, E., Collins, K. I., Annable, T., and Greenberger, L. M. Reversal of a novel multidrug resistance mechanism in human colon carcinoma cells by fumitremorgin C. Cancer Res., 58: 5850-5858, 1998); (b) parental HL-60 human promyelocytic leukemia line and derived HL-60/ADR, which expresses the MRP1 drug transporter protein, are provided by Dr. M. Center, University of Kansas (McGrath, T., and Center, M. S. Adriamycin resistance in HL60 cells in the absence of detectable P-glycoprotein. Biochem. Biophys. […] J. Biol. Chem., 261: 7762-7770, 1986) via Dr. L. Greenberger, Wyeth Research.
(§2) The assay, which is sold in kit form by Promega (Madison, Wis.; CellTiter 96 AQueous Non-Radioactive Cell Proliferation Assay), is based on the conversion by viable cells, but not by dead cells, of the tetrazolium salt, MTS (3-(4,5-dimethylthiazol-2-yl)-5-(3-carboxymethoxyphenyl)-2-(4-sulphophenyl)-2H-tetrazolium, inner salt), into a water-soluble colored formazan which is detected by spectrophotometry. Compounds are tested at nine concentrations, in order to determine IC50 values. For the test procedure, cells are harvested by trypsinization, washed, counted and distributed to wells of 96-well flat-bottom microtiter plates at 1000 cells per well in 200 μL of medium. In addition, one row of wells on a separate plate receives cells as above (“time 0” plate). All plates are incubated at 37° in humidified 5% CO2 in air for about 24 hr.
(§3) On day 2, compounds for test are diluted and added to wells. Compounds are dissolved in DMSO at 10 mg/mL. For each compound, nine serial 2-fold dilutions are prepared in DMSO. Ten μL of each dilution in DMSO are transferred to 100 μL of medium, mixed well, and then 5 μL of this dilution are transferred in quadruplicate to wells containing cells. […] Plates are returned to the incubator for three days. At the time of drug addition to the experimental plates, the MTS assay is run on the “time 0” plate. This produces the “time 0 MTS value” which is related to the number of viable cells per well at the time of drug addition.
(§4) After three days of culture with test compounds (day 5 overall), the MTS assay is done on all wells of the experimental plates. The absorbance values of the quadruplicate sample wells are averaged and divided by the average of the “time 0” values. […] The nine values for each compound are plotted against concentration, and the concentration that produces a relative color yield half way between the maximum and minimum is taken as the IC50 value.
(§5) S1-M1 cells overexpress the MXR transporter which mediates resistance to some chemotherapeutics (Gottesman, M. M., Fojo, T., and Bates, S. E. Miltidrug resistance in cancer: role of ATP-dependent transporters. Nature Rev. Cancer, 2: 48-58, 2002). The IC50 values of representative examples of this invention, as well as reference compounds, on S1-M1 are compared to values on the sensitive parental S1 line.

KB-8-5 cells = experiment: MTS cytotoxicity test with KB-8-5 cells (moderate P-glycoprotein); format: cell-based, human; details: for IC50: KB 8.5 cells, mean of 2 experiments; for Ratio 8.5/KB: IC50 on KB 8.5 cells/IC50 on KB cells
From the text: as §1, §2, §3, §4

HL-60 cells = experiment: MTS cytotoxicity test with HL-60 cells; format: cell-based, human; details: mean of 2 experiments
From the text: as §1, §2, §3, §4
as §5, with “HL-60/ADR” for “S1-M1”, “multidrug resistance protein MRP1” for “MXR transporter”, “Multidrug” for “Miltidrug”, “HL-60” for “S1”

KB cells = experiment: MTS cytotoxicity test with KB cells; format: cell-based, human; details: mean of 2 experiments
From the text: as §1, §2, §3, §4

KB-V1 cells = experiment: MTS cytotoxicity test with KB-V1 cells (very high P-glycoprotein); format: cell-based, human; details: for IC50: KB VI cells, mean of 2 experiments; for Ratio VI/KB: IC50 on KB VI cells/IC50 on KB cells; for recognition by P-glycoprotein: inferred from change in IC50 KB-V1 vs KB
From the text: as §1, §2, §3, §4

S1 cells = experiment: MTS cytotoxicity test with S1 cells; format: cell-based, human; details: mean of 2 experiments
From the text: as §1, §2, §3, §4, §5

HL-60/ADR cells = experiment: MTS cytotoxicity test with HL-60/ADR cells (MRP1); format: cell-based, human; details: for IC50: HL-60/ADR cells, mean of 2 experiments; for Ratio: IC50 on HL-60/ADR cells/IC50 on HL-60 cells
From the text: as §1, §2, §3, §4
as §5, with “HL-60/ADR” for “S1-M1”, “multidrug resistance protein MRP1” for “MXR transporter”, “Multidrug” for “Miltidrug”, “HL-60” for “S1”

COLO 205 cells = experiment: MTS cytotoxicity test with COLO 205 cells; format: cell-based, human; details: three days with compound
Procedure: as §2
On day 2, compounds for test are diluted and added to wells. Compounds are dissolved in DMSO at 10 mg/mL. For each compound, nine serial 2-fold dilutions are prepared in DMSO. Ten μL of each dilution in DMSO are transferred to 100 μL of medium, mixed well, and then 5 μL of this dilution are transferred in quadruplicate to wells containing cells. The final high concentration of each compound is typically 5 μM. Plates are returned to the incubator for three days. At the time of drug addition to the experimental plates, the MTS assay is run on the “time 0” plate. This produces the “time 0 MTS value” which is related to the number of viable cells per well at the time of drug addition.
After three days of culture with test compounds (day 5 overall), the MTS assay is done on all wells of the experimental plates. The absorbance values of the quadruplicate sample wells are averaged and divided by the average of the “time 0” values. The average of control wells without drug, divided by the average “time 0” value, gives the maximal relative increase in MTS color yield due to cell growth during the final three days of culture. The average of control wells with high drug concentration, divided by the “time 0” value, gives the minimal relative color yield for cells that were completely killed. The nine values for each compound are plotted against concentration, and the concentration that produces a relative color yield half way between the maximum and minimum is taken as the IC50 value.
COLO 205 is a human colon carcinoma cell line that is used for comparative testing of the examples of this invention and several reference compounds. This line is sensitive to paclitaxel and vincristine.

[1] = tested on: H157 Human Non-Small Cell Lung Carcinoma; details: for T/C on day 0 / T/C on day 3 / T/C on day 7 / T/C on day 10 / T/C on day 13: schedule day 0;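 on all read-outs here: subcutaneous flank tumors in female athymic nu/nu mice, staged near 100 mm^3 on day 0, tumor volume from caliper measurements, vehicle-dosed controls on the same schedule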
Procedure: The ability of compounds of this invention to inhibit tumor growth in animals is studied in the athymic mouse xenograft standard pharmacological test. Female nu/nu mice in an outbred albino background are obtained from Charles River Laboratories (Wilmington, Mass.). Animals are injected subcutaneously on the flank with the desired tumor cell suspension. Several days later, mice with tumors of approximately 100 mm^3 are selected from those injected (staged) and randomly distributed into groups of 5-10. The day of staging is called day 0. Compounds of the invention, formulated in saline, are administered to animals by intravenous injection or oral gavage on various schedules starting on day 0 or 1, as noted in the tables. The control group in each experiment is dosed with vehicle on the same schedule. Tumor size is measured every 3-7 days with calipers in two orthogonal dimensions, and tumor volume is calculated from the formula volume=[(length×width^2)/2].
Tumor/Control (T/C) is obtained by dividing the mean tumor volume of the treated group by the mean tumor volume of the control group on each measurement day. […] A p value≦0.05, determined by one-side Student's t-test, is required for statistical significance. A treatment dose is defined as toxic if more than 30% of the animals die from a compound-related toxicity.

SMILES | IC50 (S1-M1 cells; Homo sapiens) [nM] | Ratio (S1-M1 cells) | IC50 (KB-8-5 cells; Homo sapiens) [nM] | Ratio 8.5/KB (KB-8-5 cells) | IC50 (HL-60 cells; Homo sapiens) [nM] | IC50 (KB cells; Homo sapiens) [nM] | IC50 (KB-V1 cells; Homo sapiens, KB-V1) [nM] | Ratio VI/KB (KB-V1 cells) | IC50 (S1 cells; Homo sapiens) [nM] | IC50 (HL-60/ADR cells; Homo sapiens, HL60/ADR) [nM] | Ratio (HL-60/ADR cells) | IC50 (COLO 205 cells; Homo sapiens, 72 h) [nM] | recognition by P-glycoprotein (KB-V1 cells) | also measured
O=C1c2c(O)ccc(O)c2C(=O)c2c(NCCNCCO)ccc(NCCNCCO)c21 [Mitoxantrone, reference compound] | > 3000 | >120 | 256 | 1.9 | 17 | 132 | 401 | 3.0 | 25 | 259 | 15 |  |  | Ratio (S1-M1 cells; listed as mitoxantrone): > 120
CN(C)CCCOc1cc(F)c(-c2c(Cl)nc(-c3ccc4ccccc4n3)nc2NCC(F)(F)F)c(F)c1 [Example 30, 6-Chloro-5-{4-[3-(dimethylamino)propoxy]-2,6-difluorophenyl}-2-quinolin-2-yl-N-(2,2,2-trifluoroethyl)pyrimidin-4-amine] | 201 | 1.5 | 68 |  | 88 | 60 | 82 |  | 138 | 71 | 0.8 | 7.4 |  | 
COc1cccc2c1C(=O)c1c(O)c3c(c(O)c1C2=O)C[C@@](O)(C(=O)CO)C[C@@H]3O[C@H]1C[C@H](N)[C@H](O)[C@H](C)O1 [Doxorubicin, reference compound] | 2880 | 47 | 255 | 6.8 | 40 | 38 | > 300 | >79 | 61 | > 3000 | >75 |  |  | Ratio VI/KB (KB-V1 cells; listed as doxorubicin): > 79; Ratio (HL-60/ADR cells; listed as doxorubicin): > 75
CN(C)CCCOc1cc(F)c(-c2c(Cl)nc(-c3cnccn3)nc2NCC(F)(F)F)c(F)c1.Cl [Example 25a, 6-Chloro-5-{4-[3-(dimethylamino)propoxy]-2,6-difluorophenyl}-2-pyrazin-2-yl-N-(2,2,2-trifluoroethyl)pyrimidin-4-amine hygrogen chloride] |  | 1.3 |  |  |  |  |  | 4.9 |  |  | 0.9 |  | show recognition by P-glycoprotein, but much less than that shown by paclitaxel and vincristine | IC50 (COLO 205 cells): 18 nM; IC50 (S1-M1 cells): 36 nM; IC50 (KB-8-5 cells): 24 nM; IC50 (HL-60 cells): 23 nM; T/C on day 0 ([1]; 5 mg/kg IV, H157 (Table 10)): 1.02; T/C on day 3 ([1]; 5 mg/kg IV, H157 (Table 10)): 0.69*; T/C on day 7 ([1]; 5 mg/kg IV, H157 (Table 10)): 0.44**; T/C on day 10 ([1]; 5 mg/kg IV, H157 (Table 10)): 0.29**; T/C on day 13 ([1]; 5 mg/kg IV, H157 (Table 10)): 0.23**; T/C on day 0 ([1]; 10 mg/kg IV, H157): 1.01; T/C on day 3 ([1]; 10 mg/kg IV, H157): 0.49**; T/C on day 7 ([1]; 10 mg/kg IV, H157): 0.36**; T/C on day 10 ([1]; 10 mg/kg IV, H157): 0.22**; T/C on day 13 ([1]; 10 mg/kg IV, H157): 0.12**; compound toxicity ([1]; H157 NSCLC, intravenously on day 0, highest dose (10 mg/kg)): some compound toxicity is observed; IC50 (KB cells): 20 nM; IC50 (KB-V1 cells): 99 nM; IC50 (S1 cells): 27 nM; IC50 (HL-60/ADR cells): 21 nM
CNc1nc(Cl)c(-c2c(F)cc(OCCCN(C)C)cc2F)c(NCC(F)(F)F)n1.O=C(O)C(F)(F)F [Example 20a, 6-Chloro-5-{4-[3-(dimethylamino)propoxy]-2,6-difluorophenyl}-N^2-methyl-N^4-(2,2,2-trifluoroethyl)pyrimidine-2,4-diamine trifluoroacetic acid salt] | 82 | 0.9 | 57 |  | 72 | 26 | 140 | 5.5 | 95 | 68 | 0.9 | 56 | show recognition by P-glycoprotein, but much less than that shown by paclitaxel and vincristine | 
C[C@H](Nc1nc(-n2cccn2)nc(Cl)c1-c1c(F)cc(F)cc1F)C(F)(F)F [Example 17, 6-Chloro-2-(1H-pyrazol-1-yl)-N-[(1S)-2,2,2-trifluoro-1-methylethyl)-5-(2,4,6-trifluorophenyl)pyrimidin-4-amine] |  |  |  |  |  |  |  |  |  |  |  | 19 |  | 
